The values below come from US20230009323A1, “COMPOUNDS AND METHODS FOR THE TREATMENT OF CRYPTOSPORIDIOSIS” (The Broad Institute, Inc., priority 2019, published 2023).

The structures appear in SMILES notation. pEC50, pIC50: −log10 of the molar value.

For data set [1], the system named is C. parvum WT transgenic PheRS (wtL482). Put plainly: In vitro drug susceptibility in HCT-8 cells, luminescence, wild type transgenic. The format is cell-based. The conditions noted are these: Cryptosporidium parvum, HCT-8, 48 h, read-out: EC50, wild type transgenic. The protocol:
(§1) The in vitro drug susceptibility assay using transgenic parasites expressing Nluc was performed as described in Vinyak et al. Briefly, host intestinal epithelial adenocarcinoma (HCT-8) cells grown in 96-well plates were infected with purified transgenic Nluc-expressing oocysts (1,000 oocysts per well) and incubated with different concentrations of Compound 11 for 48 hours. Culture supernatant was discarded from the wells after 48 hours, and 200 μl of NanoGlo lysis buffer containing 1:50 of NanoGlo substrate (Promega) was added to the wells. Lysates were transferred to white 96-well plates and luminescence was measured on a Glomax luminescence reader (Promega). EC50 values were calculated in GraphPad Prism software v7.
(§2) Oocysts from the mutant (mut482V) and wild type (wtL482) transgenic lines were purified as well as the parent strain (Bunchgrass) used to generate the transgenics. Sporozoites were excised from these oocysts and used to infect 96 well format HCT-8 cultures to perform in vitro drug susceptibility assays. Cultures were incubated for 48 hours in the presence of varying concentrations of Compound 11 and parasite growth was measured by establishing whole well luciferase activity to calculate EC50 values for each strain.

Data set [2] relates to C. parvum (Field Isolate) WSU. The experiment in a line: C. parvum field isolate (WSU) growth in HCT-8 cells. The format is cell-based. Particulars: Cryptosporidium parvum. On the procedure: Studies using farm C. parvum isolates and the C. hominis TU502 isolate were performed by Calibr at Scripps Research (La Jolla, Calif.) in 1,536-well plates using a slightly modified immunofluorescence assay as described in Love, M. S. et al. PLoS neglected tropical diseases 11, e0005373, doi:10.1371/journal.pntd.0005373 (2017), hereby incorporated by reference in its entirety. HCT-8 cell culture medium was replaced with RPMI 1640 medium supplemented with 2% heat-inactivated horse serum, 100 U·mL^−1 penicillin, and […] 24 h prior to infection with the indicated isolate. The C. parvum Iowa isolate was included as a reference in all experiments. Imaging was performed using a Cellnsight CX5 High Content screening platform (Thermo Scientific) with a 10× objective and acquisition of one microscopic field per well. Images were processed using HCS Studio Scan software, and the selected-object count (HCT-8 cells) and spot count (parasitophorous vacuoles) were analyzed in Genedata Screener (version 13.0; Standard). Dose-response curves and EC50 values were calculated using the Smart Fit function of Genedata Analyzer.

The subject of a further data set is C. parvum. The experiment in a line: Asexual growth vs DMC1 sexual differentiation assay. Format: cell-based, Cryptosporidium parvum. On the procedure:
The effect on expression of the meiotic recombination protein DMC1 was previously identified as a sexual stage-specific marker for C. parvum. The potency of Compound 11 for inhibiting asexual development during the first 48 h of infection was compared to its potency at inhibiting DMC1 expression when compound was added after 48 h of culture (the approximate timing of sexual differentiation). In addition to staining for parasites with FITC-Vicia villosa lectin and DNA with Hoechst as above, samples were stained for the presence of DMC1 with an anti-C. parvum DMC1 mouse monoclonal antibody (clone 1H10G7 (IgG2b, kappa) used as undiluted culture medium with a secondary Alexa Fluor 568 goat anti-mouse IgG antibody (Invitrogen) at 1:500 dilution. Cultures were performed in 384-well plates with the addition of amphotericin B (Sigma, catalog) to the culture medium at 0.1 to 0.5 μg·mL^−1 for these assays. Images were acquired as above, and analyzed using NIH ImageJ software.

Data set [3] has as its system transgenic C. parvum (L482+V482 mixed or wt L482). Put plainly: IFN-γ knockout mice infected with transgenic C. parvum, fecal luminescence. The format is in vivo, C57BL/6 IFN-γ knockout mice. Particulars: 10 mg/kg for five days (days 4-8 post-infection); day 7. From the text: All mouse studies described in this section were approved by the Institutional Animal Care and Use Committee of the University of Georgia and University of Pennsylvania. Cryptosporidium parvum IOWA-II oocysts were purchased from Bunch Grass Farms, Deary, Id., USA. Oocysts were excysted and electroporated with Cas9/guide plasmid and repair DNA template using Lonza Nucleofector 4D device and previously optimized protocols described in Vinayak, S. et al. Nature 523, 477-480, doi:10.1038/nature14651 (2015) and Pawlowic, et al. Curr Protoc Microbiol 46, 20B 22 21-20B 22 32, doi:10.1002/cpmc.33 (2017), each hereby incorporated by reference in their entirety. C57BL/6 IFN-γ knockout mice (Jackson Laboratory) aged 4-6 weeks (n=5) were infected with transfected sporozoites suspended in PBS using surgery described previously or an oral gavage procedure. The oral gavage procedure involved buffering of the acidic stomach with 8% sodium bicarbonate before delivery of sporozoites.
Fecal samples were collected from cages and luminescence measurements were performed as described in Manjunatha, U. H. et al. Nature 546, 376-380, doi:10.1038/nature22337 (2017) and Vinayak, S. et al. Nature 523, 477-480, doi:10.1038/nature14651 (2015), each hereby incorporated by reference in their entirety. […] During passaging, mice were monitored for weight loss, fur ruffling, hunched posture, and inactivity. […]

The next data set can be described thus: HEK293T cytotoxicity. Particulars: human, HEK293T cells. Format: cell-based.
Another data set concerns cytosolic PfcPheRS. Particulars: previously reported; cited from earlier work.
Data set [4] relates to C. parvum mutant transgenic PheRS (mut482V). Put plainly: microbe, parasite or virus in culture. The format is cell-based, Cryptosporidium parvum. The protocol:
as §1, §2

The pEC50 is the EC50 on a negative log10 scale, so that one unit is a factor of ten. By CC50 is commonly meant the concentration that lowers cell viability or growth by half. Low values mean greater toxicity to the cells, high ones lower toxicity to the cells. As usually defined, the pIC50 is −log10 of the IC50, conventionally taken in molar units. On to `COc1ccc(NC(=O)N2CCCCN3[C@H](CN(C)C)[C@H](c4ccc(C#Cc5ccccc5)cc4)[C@@H]3C2)cc1` [Compound 11, (8R,9S,10S)-10-((dimethylamino)methyl)-N-(4-methoxyphenyl)-9-(4-(phenylethynyl)phenyl)-1,6-diazabicyclo[6.2.0]decane-6-carboxamide], for which the pEC50 was 7.33 in data set [1]; 7.64 in data set [2]; 5.98 in data set [4] (Cryptosporidium parvum, HCT-8, 48 h, read-out: EC50, mutant transgenic). Besides, the “potency on asexual growth (0-48 h) vs DMC1 expression (48-72 h)” value in the data set on C. parvum is recorded as “approximately equipotent”. For the same compound, the “fecal luciferase activity (parasite shedding)” value in data set [3] is on record as “decrease in luciferase activity”. The same compound yielded a half-maximal cytotoxic concentration (CC50) in the data set “HEK293T cytotoxicity” of 5 µM. For the same compound, the pIC50 in the data set with cytosolic PfcPheRS is 7.64. Moreover, the “fold shift in EC50, mutant transgenic vs wild type transgenic” value in data set [4] was 23 fold.
